Experimental data: publication PMC6429214, “Design, Synthesis and Biological Evaluation of Isoxazole-Based CK1 Inhibitors Modified with Chiral Pyrrolidine Scaffolds” (Molecules, 2019)

Columns and labels:
Assay in all cases: 33PanQinase panel
Type in all cases: biochemical
ABL2 = biological target: T1, ABL2 (Homo sapiens, UniProt P42684); conditions: ABL2, 1 µM; read-out: Residual Activity (%)
T1 construct: purchased ProQinase
How it was run: (§1)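 Single-point screen at 1 µM in a 320 wild-type kinase panel using activity-based radiometric 33P assay; final DMSO 1%. Values are percent residual kinase activity relative to DMSO control.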

CAMKK1 = biological target: T2, CAMKK1 (Homo sapiens, UniProt Q8N5S9); conditions: CAMKK1, 1 µM; read-out: Residual Activity (%)
T2 construct: purchased ProQinase
How it was run: as §1

CDC42BPB = biological target: T3, CDC42BPB (Homo sapiens, UniProt Q9Y5S2); conditions: read-out: Residual Activity (%)
T3 construct: purchased ProQinase
How it was run: as §1

CDK16/CycY = biological target: T4, CDK16/CycY (Homo sapiens, UniProt Q00536); conditions: read-out: Residual Activity (%)
T4 construct: purchased ProQinase
How it was run: as §1

CDK5/p25NCK = biological target: T5, CDK5/p25NCK (Homo sapiens, UniProt Q00535); conditions: read-out: Residual Activity (%)
T5 construct: purchased ProQinase
How it was run: as §1

CHK2 = biological target: T6, CHK2 (Homo sapiens, UniProt O96017); conditions: CHK2, 1 µM; read-out: Residual Activity (%)
T6 construct: purchased ProQinase
How it was run: as §1

CK1-gamma3 = biological target: T7, CK1-gamma3 (Homo sapiens, UniProt Q9Y6M4); conditions: CK1-gamma3, 1 µM; read-out: Residual Activity (%)
T7 construct: purchased ProQinase
How it was run: as §1

COT = biological target: T8, COT (Homo sapiens, UniProt P41279); conditions: read-out: Residual Activity (%)
T8 construct: purchased ProQinase
How it was run: as §1

DMPK = biological target: T9, DMPK (Homo sapiens, UniProt Q09013); conditions: read-out: Residual Activity (%)
T9 construct: purchased ProQinase
How it was run: as §1

EPHA6 = biological target: T10, EPHA6 (Homo sapiens, UniProt Q9UF33); conditions: EPHA6, 1 µM; read-out: Residual Activity (%)
T10 construct: purchased ProQinase
How it was run: as §1

EPHA8 = biological target: T11, EPHA8 (Homo sapiens, UniProt P29322); conditions: EPHA8, 1 µM; read-out: Residual Activity (%)
T11 construct: purchased ProQinase
How it was run: as §1

ERBB4 = biological target: T12, ERBB4 (Homo sapiens, UniProt Q15303); conditions: ERBB4, 1 µM; read-out: Residual Activity (%)
T12 construct: purchased ProQinase
How it was run: as §1

FGF-R2 = biological target: T13, FGF-R2 (Homo sapiens, UniProt P21802); conditions: FGF-R2, 1 µM; read-out: Residual Activity (%)
T13 construct: purchased ProQinase
How it was run: as §1

FLT3 = biological target: T14, FLT3 (Homo sapiens, UniProt P36888); conditions: FLT3, 1 µM; read-out: Residual Activity (%)
T14 construct: purchased ProQinase
How it was run: as §1

INSR-R = biological target: T15, INSR-R (Homo sapiens, UniProt P14616); conditions: read-out: Residual Activity (%)
T15 construct: purchased ProQinase
How it was run: as §1

JAK2 = biological target: T16, JAK2 (Homo sapiens, UniProt O60674); conditions: JAK2, 1 µM; read-out: Residual Activity (%)
T16 construct: purchased ProQinase
How it was run: as §1

LYN = biological target: T17, LYN (Homo sapiens, UniProt P07948); conditions: read-out: Residual Activity (%)
T17 construct: purchased ProQinase
How it was run: as §1

NEK4 = biological target: T18, NEK4 (Homo sapiens, UniProt P51957); conditions: NEK4, 1 µM; read-out: Residual Activity (%)
T18 construct: purchased ProQinase
How it was run: as §1

NEK9 = biological target: T19, NEK9 (Homo sapiens, UniProt Q8TD19); conditions: NEK9, 1 µM; read-out: Residual Activity (%)
T19 construct: purchased ProQinase
How it was run: as §1

NIK = biological target: T20, NIK (Homo sapiens, UniProt Q99558); conditions: read-out: Residual Activity (%)
T20 construct: purchased ProQinase
How it was run: as §1

PAK1 = biological target: T21, PAK1 (Homo sapiens, UniProt Q13153); conditions: PAK1, 1 µM; read-out: Residual Activity (%)
T21 construct: purchased ProQinase
How it was run: as §1

PKC-beta2 = biological target: T22, PKC-beta2 (Homo sapiens, UniProt P05771); conditions: PKC-beta2, 1 µM; read-out: Residual Activity (%)
T22 construct: purchased ProQinase
How it was run: as §1

PRKG2 = biological target: T23, PRKG2 (Homo sapiens, UniProt Q13237); conditions: PRKG2, 1 µM; read-out: Residual Activity (%)
T23 construct: purchased ProQinase
How it was run: as §1

SRMS = biological target: T24, SRMS (Homo sapiens, UniProt Q9H3Y6); conditions: read-out: Residual Activity (%)
T24 construct: purchased ProQinase
How it was run: as §1

TRK-A = biological target: T25, TRK-A (Homo sapiens, UniProt P04629); conditions: read-out: Residual Activity (%)
T25 construct: purchased ProQinase
How it was run: as §1

TTBK1 = biological target: T26, TTBK1 (Homo sapiens, UniProt Q5TCY1); conditions: TTBK1, 1 µM; read-out: Residual Activity (%)
T26 construct: purchased ProQinase
How it was run: as §1

WNK2 = biological target: T27, WNK2 (Homo sapiens, UniProt Q9Y3S1); conditions: WNK2, 1 µM; read-out: Residual Activity (%)
T27 construct: purchased ProQinase
How it was run: as §1

p38-alpha = biological target: T28, p38-alpha (Homo sapiens, UniProt Q16539); conditions: read-out: Residual Activity (%)
T28 construct: purchased ProQinase
How it was run: as §1

T10 sequence (Q9UF33 23-1036): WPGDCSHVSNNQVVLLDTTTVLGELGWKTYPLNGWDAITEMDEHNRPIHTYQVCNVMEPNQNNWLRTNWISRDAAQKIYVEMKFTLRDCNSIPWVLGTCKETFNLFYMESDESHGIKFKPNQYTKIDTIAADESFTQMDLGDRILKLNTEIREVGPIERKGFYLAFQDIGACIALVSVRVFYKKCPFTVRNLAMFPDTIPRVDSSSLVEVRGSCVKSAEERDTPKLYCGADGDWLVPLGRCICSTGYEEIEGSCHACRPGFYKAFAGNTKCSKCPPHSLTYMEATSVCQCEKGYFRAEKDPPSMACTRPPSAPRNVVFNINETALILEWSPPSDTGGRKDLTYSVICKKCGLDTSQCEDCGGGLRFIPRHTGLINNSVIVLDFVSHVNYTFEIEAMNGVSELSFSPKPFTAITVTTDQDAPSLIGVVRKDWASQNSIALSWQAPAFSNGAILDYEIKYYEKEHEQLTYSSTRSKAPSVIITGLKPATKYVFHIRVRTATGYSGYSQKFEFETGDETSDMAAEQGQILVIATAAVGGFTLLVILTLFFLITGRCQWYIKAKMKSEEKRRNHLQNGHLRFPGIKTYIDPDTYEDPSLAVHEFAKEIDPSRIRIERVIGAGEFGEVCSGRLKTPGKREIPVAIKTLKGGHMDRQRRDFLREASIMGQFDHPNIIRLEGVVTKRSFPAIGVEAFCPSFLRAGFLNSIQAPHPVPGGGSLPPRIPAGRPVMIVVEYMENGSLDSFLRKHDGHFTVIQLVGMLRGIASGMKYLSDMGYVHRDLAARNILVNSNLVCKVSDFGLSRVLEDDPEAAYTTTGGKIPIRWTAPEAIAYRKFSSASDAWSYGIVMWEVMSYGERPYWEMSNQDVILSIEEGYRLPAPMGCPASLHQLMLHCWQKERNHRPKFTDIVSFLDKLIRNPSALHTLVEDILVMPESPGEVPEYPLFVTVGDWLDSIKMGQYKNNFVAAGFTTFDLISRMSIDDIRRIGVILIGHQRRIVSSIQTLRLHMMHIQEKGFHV
T25 sequence (P04629 33-796): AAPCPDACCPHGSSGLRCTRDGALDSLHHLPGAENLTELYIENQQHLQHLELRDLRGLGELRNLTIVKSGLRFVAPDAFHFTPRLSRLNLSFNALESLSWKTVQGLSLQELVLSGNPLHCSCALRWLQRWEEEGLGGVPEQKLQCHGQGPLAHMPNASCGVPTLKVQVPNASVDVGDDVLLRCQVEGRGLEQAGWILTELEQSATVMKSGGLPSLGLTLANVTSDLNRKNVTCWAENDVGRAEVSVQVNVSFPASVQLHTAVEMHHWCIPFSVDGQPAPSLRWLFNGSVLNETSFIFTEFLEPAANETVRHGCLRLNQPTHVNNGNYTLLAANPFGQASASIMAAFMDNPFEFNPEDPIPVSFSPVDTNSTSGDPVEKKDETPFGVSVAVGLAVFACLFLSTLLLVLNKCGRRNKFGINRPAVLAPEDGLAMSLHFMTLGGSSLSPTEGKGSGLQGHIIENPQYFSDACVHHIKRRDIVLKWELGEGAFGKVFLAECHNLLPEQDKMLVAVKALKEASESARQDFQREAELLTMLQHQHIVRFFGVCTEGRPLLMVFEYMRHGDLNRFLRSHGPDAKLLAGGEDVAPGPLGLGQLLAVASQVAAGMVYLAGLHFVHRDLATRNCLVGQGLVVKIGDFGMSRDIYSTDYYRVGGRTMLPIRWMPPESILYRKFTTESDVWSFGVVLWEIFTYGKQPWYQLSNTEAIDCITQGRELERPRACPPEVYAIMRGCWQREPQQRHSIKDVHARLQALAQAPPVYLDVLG
T21 sequence (Q13153 whole entry): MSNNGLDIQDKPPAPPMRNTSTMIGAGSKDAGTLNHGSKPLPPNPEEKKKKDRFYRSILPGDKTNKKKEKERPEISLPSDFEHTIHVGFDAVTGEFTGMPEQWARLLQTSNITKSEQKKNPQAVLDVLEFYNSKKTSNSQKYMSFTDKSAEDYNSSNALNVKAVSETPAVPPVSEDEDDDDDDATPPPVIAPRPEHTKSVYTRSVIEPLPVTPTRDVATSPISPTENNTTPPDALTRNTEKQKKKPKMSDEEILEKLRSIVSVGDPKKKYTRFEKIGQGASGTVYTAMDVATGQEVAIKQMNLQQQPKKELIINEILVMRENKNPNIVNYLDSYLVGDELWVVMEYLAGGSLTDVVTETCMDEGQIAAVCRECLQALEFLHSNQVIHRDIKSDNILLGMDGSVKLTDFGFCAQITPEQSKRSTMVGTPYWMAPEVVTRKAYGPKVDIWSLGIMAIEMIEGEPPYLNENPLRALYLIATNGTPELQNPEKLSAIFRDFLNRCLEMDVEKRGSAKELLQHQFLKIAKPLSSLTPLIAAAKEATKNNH
T27 sequence (Q9Y3S1 whole entry): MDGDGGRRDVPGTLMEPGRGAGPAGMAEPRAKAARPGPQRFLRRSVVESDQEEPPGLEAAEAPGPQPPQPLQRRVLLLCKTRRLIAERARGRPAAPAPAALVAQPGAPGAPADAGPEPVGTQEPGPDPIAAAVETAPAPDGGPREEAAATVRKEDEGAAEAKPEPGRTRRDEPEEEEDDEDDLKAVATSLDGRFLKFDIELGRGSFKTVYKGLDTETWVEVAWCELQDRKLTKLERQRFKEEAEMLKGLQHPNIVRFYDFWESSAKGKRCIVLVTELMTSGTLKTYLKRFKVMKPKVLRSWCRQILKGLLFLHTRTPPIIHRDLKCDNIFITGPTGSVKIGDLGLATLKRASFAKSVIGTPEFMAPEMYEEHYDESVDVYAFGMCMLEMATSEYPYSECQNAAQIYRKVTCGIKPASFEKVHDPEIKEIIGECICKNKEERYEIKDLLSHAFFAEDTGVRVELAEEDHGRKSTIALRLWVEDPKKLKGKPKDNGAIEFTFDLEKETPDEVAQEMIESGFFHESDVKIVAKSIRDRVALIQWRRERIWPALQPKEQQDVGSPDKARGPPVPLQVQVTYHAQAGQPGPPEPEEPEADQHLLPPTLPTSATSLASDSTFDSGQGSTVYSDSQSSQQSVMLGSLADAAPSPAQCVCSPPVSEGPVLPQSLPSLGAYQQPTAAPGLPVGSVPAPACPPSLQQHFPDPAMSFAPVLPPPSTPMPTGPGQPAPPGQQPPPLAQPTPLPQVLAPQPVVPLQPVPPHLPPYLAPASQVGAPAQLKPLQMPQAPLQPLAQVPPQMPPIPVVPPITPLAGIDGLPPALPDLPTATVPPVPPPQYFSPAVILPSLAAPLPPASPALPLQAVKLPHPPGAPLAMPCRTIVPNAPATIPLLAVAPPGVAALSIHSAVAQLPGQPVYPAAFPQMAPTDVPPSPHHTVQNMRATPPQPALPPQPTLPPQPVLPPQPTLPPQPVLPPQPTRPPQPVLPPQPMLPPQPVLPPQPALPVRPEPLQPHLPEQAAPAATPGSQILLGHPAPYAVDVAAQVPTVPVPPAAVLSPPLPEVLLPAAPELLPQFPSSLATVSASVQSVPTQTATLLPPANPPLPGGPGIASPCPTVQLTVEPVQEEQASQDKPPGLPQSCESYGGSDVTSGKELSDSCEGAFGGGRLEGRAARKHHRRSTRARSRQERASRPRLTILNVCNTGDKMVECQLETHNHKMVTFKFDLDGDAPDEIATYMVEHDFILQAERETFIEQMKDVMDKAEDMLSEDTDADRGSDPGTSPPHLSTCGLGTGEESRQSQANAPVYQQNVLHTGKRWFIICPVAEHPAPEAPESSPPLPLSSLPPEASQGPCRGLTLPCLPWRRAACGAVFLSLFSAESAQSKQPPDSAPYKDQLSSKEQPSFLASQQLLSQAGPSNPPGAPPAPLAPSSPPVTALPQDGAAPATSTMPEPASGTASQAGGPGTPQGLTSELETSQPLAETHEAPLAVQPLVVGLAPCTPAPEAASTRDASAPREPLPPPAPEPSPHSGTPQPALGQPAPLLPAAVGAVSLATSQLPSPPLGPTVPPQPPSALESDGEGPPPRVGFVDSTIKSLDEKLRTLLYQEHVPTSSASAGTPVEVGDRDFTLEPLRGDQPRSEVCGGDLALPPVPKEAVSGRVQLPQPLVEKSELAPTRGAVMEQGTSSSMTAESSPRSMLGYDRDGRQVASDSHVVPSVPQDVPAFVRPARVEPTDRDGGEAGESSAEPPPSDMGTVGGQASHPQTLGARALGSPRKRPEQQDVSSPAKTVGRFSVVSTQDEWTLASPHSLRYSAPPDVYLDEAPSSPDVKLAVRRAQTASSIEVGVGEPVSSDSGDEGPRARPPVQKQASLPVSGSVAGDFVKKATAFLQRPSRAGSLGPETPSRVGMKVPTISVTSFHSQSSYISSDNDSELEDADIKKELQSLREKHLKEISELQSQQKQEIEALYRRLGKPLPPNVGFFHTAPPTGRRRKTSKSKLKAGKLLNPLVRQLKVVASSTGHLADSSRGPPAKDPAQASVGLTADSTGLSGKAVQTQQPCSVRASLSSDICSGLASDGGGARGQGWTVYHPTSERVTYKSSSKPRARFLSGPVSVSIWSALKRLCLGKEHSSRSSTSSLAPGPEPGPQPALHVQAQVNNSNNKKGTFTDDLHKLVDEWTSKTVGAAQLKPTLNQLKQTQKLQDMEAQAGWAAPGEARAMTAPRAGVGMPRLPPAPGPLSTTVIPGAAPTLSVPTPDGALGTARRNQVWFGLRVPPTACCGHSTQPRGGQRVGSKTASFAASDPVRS
T24 sequence (Q9H3Y6 whole entry): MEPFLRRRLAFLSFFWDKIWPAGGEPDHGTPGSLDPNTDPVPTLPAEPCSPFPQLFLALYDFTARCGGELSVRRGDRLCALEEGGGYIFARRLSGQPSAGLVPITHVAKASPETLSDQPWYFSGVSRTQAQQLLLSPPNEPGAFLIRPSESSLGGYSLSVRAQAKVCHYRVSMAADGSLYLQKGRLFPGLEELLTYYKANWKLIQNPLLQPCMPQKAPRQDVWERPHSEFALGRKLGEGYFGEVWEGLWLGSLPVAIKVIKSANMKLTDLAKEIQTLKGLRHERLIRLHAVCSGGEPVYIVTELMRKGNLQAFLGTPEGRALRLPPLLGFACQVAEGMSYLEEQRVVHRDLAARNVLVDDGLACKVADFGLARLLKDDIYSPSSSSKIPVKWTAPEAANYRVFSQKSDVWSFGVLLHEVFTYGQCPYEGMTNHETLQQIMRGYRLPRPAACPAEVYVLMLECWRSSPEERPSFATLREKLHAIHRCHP

Work on COc1ccc(-c2cc(C(=O)Nc3cc(-c4c(-c5ccc(F)cc5)noc4C(C)C)ccn3)n(CC3NCC(O)C3O)c2)cc1 (stereo not shown) [29d] yielded a remaining activity at 1 µM (ABL2) of 110%, a remaining activity at 1 µM (CAMKK1) of 89% and a remaining activity at 1 µM (CDC42BPB) of 86%. The remaining activity at 1 µM (CDK16/CycY) was 112%, the remaining activity at 1 µM (CDK5/p25NCK) was 92% and the remaining activity at 1 µM (CHK2) was 97%. The remaining activity at 1 µM (CK1-gamma3) was 74%, the remaining activity at 1 µM (COT) was 89% and the remaining activity at 1 µM (DMPK) was 93%. The remaining activity at 1 µM (EPHA6) was 108%, the remaining activity at 1 µM (EPHA8) was 113% and the remaining activity at 1 µM (ERBB4) was 103%. It also gave a remaining activity at 1 µM (FGF-R2) of 94%, a remaining activity at 1 µM (FLT3) of 87% and a remaining activity at 1 µM (INSR-R) of 89%. The remaining activity at 1 µM (JAK2) was 80%, the remaining activity at 1 µM (LYN) was 122% and the remaining activity at 1 µM (NEK4) was 108%. The remaining activity at 1 µM (NEK9) was 91%, the remaining activity at 1 µM (NIK) was 98% and the remaining activity at 1 µM (PAK1) was 88%. It also gave a remaining activity at 1 µM (PKC-beta2) of 118%, a remaining activity at 1 µM (PRKG2) of 100% and a remaining activity at 1 µM (SRMS) of 127%. It also gave a remaining activity at 1 µM (TRK-A) of 116%, a remaining activity at 1 µM (TTBK1) of 104% and a remaining activity at 1 µM (WNK2) of 103%. For the same compound, the remaining activity at 1 µM (p38-alpha) was 17%.
